Laboratory results as given in patent US9926297B2, “Bicyclic AZA compounds as muscarinic M1 receptor and/or M4 receptor agonists” (Heptares Therapeutics Limited, priority 2014, dated 2018).

What was measured:
[1] = target: T1, human muscarinic M4 receptor (Homo sapiens, UniProt P08173); experiment: Alphascreen Surefire phospho-ERK1/2 functional assay, M4; format: cell-based; conditions: for EC50: read-out: pEC50 M4 (converted); for Emax: CHO, read-out: % Emax cf. ACh, M4, CHO cells stably expressing human M4
T1 construct: expressed in transfected cells
T1 sequence (P08173 1-479): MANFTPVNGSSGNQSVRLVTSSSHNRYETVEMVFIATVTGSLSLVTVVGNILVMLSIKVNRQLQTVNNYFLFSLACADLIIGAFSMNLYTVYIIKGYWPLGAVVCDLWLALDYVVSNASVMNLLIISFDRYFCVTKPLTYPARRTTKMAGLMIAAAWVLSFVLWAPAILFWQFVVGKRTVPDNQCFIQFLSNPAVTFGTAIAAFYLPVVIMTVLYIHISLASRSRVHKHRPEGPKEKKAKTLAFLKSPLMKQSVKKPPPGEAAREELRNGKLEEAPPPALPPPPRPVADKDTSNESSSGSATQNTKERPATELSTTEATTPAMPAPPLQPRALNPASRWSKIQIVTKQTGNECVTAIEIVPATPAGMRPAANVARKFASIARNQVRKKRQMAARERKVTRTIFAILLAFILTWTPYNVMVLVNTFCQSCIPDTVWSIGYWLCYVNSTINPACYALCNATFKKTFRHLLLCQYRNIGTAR

[2] = target: T2, human muscarinic M1 receptor (Homo sapiens, UniProt P11229); experiment: Alphascreen Surefire phospho-ERK1/2 functional assay, M1; format: cell-based; conditions: for EC50: read-out: pEC50 M1 (converted); for Emax: CHO, read-out: % Emax cf. ACh, M1, CHO cells stably expressing human M1
T2 sequence (P11229 1-460): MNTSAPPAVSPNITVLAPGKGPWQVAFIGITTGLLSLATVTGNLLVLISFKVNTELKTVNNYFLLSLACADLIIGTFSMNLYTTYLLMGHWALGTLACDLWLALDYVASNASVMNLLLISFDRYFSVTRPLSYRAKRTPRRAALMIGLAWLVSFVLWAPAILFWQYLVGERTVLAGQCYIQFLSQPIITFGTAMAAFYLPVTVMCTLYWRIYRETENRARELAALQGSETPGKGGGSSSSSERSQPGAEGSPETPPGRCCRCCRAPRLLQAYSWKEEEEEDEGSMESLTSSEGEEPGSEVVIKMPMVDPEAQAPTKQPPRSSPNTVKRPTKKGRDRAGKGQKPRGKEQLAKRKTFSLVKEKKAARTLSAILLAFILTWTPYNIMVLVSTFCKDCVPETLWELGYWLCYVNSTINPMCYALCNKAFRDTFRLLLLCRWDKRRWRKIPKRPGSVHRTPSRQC

[3] = target: T3, human muscarinic M2 receptor (Homo sapiens, UniProt P08172); experiment: Alphascreen Surefire phospho-ERK1/2 functional assay, M2; conditions: for Emax: CHO, read-out: % Emax cf. ACh, M2, CHO cells stably expressing human M2
T3 sequence (P08172 1-466): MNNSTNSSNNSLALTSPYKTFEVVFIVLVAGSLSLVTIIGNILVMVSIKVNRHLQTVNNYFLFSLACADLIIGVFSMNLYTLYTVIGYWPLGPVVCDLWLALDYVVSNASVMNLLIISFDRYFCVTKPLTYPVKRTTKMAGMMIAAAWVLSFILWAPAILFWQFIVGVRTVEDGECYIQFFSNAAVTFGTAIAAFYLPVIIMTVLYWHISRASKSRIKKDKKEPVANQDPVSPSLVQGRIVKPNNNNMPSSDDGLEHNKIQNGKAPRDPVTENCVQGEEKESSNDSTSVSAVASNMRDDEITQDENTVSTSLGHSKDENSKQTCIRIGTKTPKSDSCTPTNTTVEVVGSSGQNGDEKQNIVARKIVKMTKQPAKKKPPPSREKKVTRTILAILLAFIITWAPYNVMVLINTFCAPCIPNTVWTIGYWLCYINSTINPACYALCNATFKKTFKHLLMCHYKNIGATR
Procedure: CHO cells stably expressing the human muscarinic M1, M2, M3 or M4 receptor were plated (25K/well) onto 96-well tissue culture plates in MEM-alpha+10% dialysed FBS. Once adhered, cells were serum-starved overnight. Agonist stimulation was performed by the addition of 5 μL agonist to the cells for 5 min (37° C.). Media was removed and 50 μL of lysis buffer added. After 15 min, a 4 μL sample was transferred to 384-well plate and 7 μL of detection mixture added. Plates were incubated for 2 h with gentle agitation in the dark and then read on a PHERAstar plate reader.
pEC50 and Emax figures were calculated from the resulting data for each receptor subtype.

[4] = target: human muscarinic M3 receptor (Homo sapiens, UniProt P20309); experiment: Alphascreen Surefire phospho-ERK1/2 functional assay, M3; conditions: for Emax: CHO, read-out: % Emax cf. ACh, M3, CHO cells stably expressing human M3; for EC50: pEC50 M3, CHO cells stably expressing human M3
human muscarinic M3 receptor, sequence (P20309 whole entry): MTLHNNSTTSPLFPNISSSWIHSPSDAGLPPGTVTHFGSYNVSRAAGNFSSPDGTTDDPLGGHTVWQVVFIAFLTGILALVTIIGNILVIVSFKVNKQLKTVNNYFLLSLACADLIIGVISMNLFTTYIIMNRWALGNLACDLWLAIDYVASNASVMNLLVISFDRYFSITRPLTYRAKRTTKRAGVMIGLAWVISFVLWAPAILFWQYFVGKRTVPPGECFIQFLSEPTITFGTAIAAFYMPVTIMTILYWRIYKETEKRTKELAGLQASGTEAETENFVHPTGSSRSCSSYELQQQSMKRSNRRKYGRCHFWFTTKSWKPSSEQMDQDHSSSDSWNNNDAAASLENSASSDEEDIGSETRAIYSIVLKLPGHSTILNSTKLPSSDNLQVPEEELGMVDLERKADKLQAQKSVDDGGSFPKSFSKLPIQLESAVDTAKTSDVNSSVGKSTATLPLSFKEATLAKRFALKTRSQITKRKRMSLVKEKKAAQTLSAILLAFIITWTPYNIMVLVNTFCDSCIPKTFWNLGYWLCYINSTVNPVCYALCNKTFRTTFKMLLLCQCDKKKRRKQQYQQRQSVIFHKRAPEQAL

[5] = CHO cells stably expressing human M4, phospho-ERK1/2, * = variable results
[6] = CHO cells stably expressing human M1, phospho-ERK1/2, * = variable results
[7] = phospho-ERK1/2, * = variable results

Row | Compound | EC50 [1, 5] | Emax ([1]; relative to ACh) | EC50 [2, 6] | Emax ([2]; relative to ACh) | EC50 [3] | Emax ([3]; relative to ACh) | Emax ([4]; relative to ACh) | EC50 [4, 7] | pEC50 M4 [1, 5] | % Emax cf. ACh, M4 ([1]; CHO cells stably expressing human M4, relative to ACh) | pEC50 M1 [2, 6] | % Emax cf. ACh, M1 ([2]; CHO cells stably expressing human M1, relative to ACh) | pEC50 M2 ([3]; CHO cells stably expressing human M2, phospho-ERK1/2, * = variable results) | % Emax cf. ACh, M2 ([3]; CHO cells stably expressing human M2, relative to ACh) | pEC50 M3 ([4]; CHO cells stably expressing human M3, phospho-ERK1/2, * = variable results) | % Emax cf. ACh, M3 ([4]; CHO cells stably expressing human M3, relative to ACh)
1 | CCOC(=O)N1CCC2(CC(N3CCC(N4CCSCC4)CC3)C2)C1 (single isomer, unassigned) [4-12 Isomer 2, ethyl 2-[4-(thiomorpholin-4-yl)piperidin-1-yl]-6-azaspiro[3.4]octane-6-carboxylate] | 39.8 nM | 32% | > 20000 nM | 19% | > 20000 nM | 7% | 14% | > 20000 nM |  |  |  |  |  |  |  | 
2 | CCOC(=O)N1CCC2(CC(N3CCC(C4CCCN4)CC3)C2)C1 (single isomer, unassigned) [2-1 Isomer 2, ethyl 2-[4-(pyrrolidin-2-yl)piperidin-1-yl]-6-azaspiro[3.4]octane-6-carboxylate] | 316 nM | 63% | > 20000 nM | 6% | > 20000 nM |  |  | > 20000 nM |  |  |  |  |  |  |  | 
3 | CCOC(=O)N1CCC2(CC(N3CCC([C@@H]4CCCN4C(=O)NC4CCC4)CC3)C2)C1 (single isomer, unassigned) [2-30 Isomer 2] | 15.8 nM | 97% | 501 nM | 34% | > 20000 nM | 52% | 13% | > 20000 nM |  |  |  |  |  |  |  | 
4 | CCOC(=O)N1CCC2(CC(N3CCC(C4C(=O)NCCC4C)CC3)C2)C1 (single isomer, unassigned) [4-3 Isomer 2, ethyl 2-(4-methyl-2-oxo-3,4′-bipiperidin-1′-yl)-6-azaspiro[3.4]octane-6-carboxylate] | 12.6 nM | 88% | 158 nM | 103% | > 20000 nM | 9% | 4% | > 20000 nM |  |  |  |  |  |  |  | 
5 | CCOC(=O)N1CCC2(CC(N3CCC(N4CCNC4=O)CC3)C2)C1 (single isomer, unassigned) [2-124 Isomer 2, ethyl 2-[4-(2-oxoimidazolidin-1-yl)piperidin-1-yl]-6-azaspiro[3.4]octane-6-carboxylate] | 79.4 nM | 77% | 631 nM | 45% | > 20000 nM | 2% | 0% | > 20000 nM |  |  |  |  |  |  |  | 
6 | CCOC(=O)N1CCC2(CC(N3CCC(c4nc(Cl)c(Cl)n4C)CC3)C2)C1 (single isomer, unassigned) [1-17 Isomer 2, ethyl 2-[4-(4,5-dichloro-1-methyl-1H-imidazol-2-yl)piperidin-1-yl]-6-azaspiro[3.4]octane-6-carboxylate] | 63.1 nM | 90% | 631 nM | 53% | > 20000 nM | 14% | 0% | > 20000 nM |  |  |  |  |  |  |  | 
7 | CCOC(=O)N1CCC2(CC(N3CCC(N4CCCCCC4C(=O)OC)CC3)C2)C1 (single isomer, unassigned) [5-2 Isomer 2, ethyl 2-{4-[2-(methoxycarbonyl)azepan-1-yl]piperidin-1-yl}-6-azaspiro[3.4]octane-6-carboxylate] | 50.1 nM | 96% | 1000 nM | 58% | > 20000 nM | 5% | 4% | > 20000 nM |  |  |  |  |  |  |  | 
8 | CCOC(=O)N1CCC2(CC(N3CCC([C@@H]4CCCN4C(=O)C4CCC4)CC3)C2)C1 (single isomer, unassigned) [2-9 Isomer 2] | 10 nM | 104% | 1000 nM | 43% | > 20000 nM | 4% | 6% | > 20000 nM |  |  |  |  |  |  |  | 
9 | CCOC(=O)N1CCC2(CC(N3CCC([C@@H]4CCCN4c4nccs4)CC3)C2)C1 (single isomer, unassigned) [2-82 Isomer 2] | 20 nM | 70% | 501 nM | 52% | > 20000 nM | 1% | 0% | > 20000 nM |  |  |  |  |  |  |  | 
10 | CCOC(=O)N1CCC2(CC(N3CCC([C@@H]4CCCN4C(=O)NC)CC3)C2)C1 (single isomer, unassigned) [2-17 Isomer 2] | 3.16 nM | 116% | 200 nM | 72% | > 20000 nM | 5% | 4% | > 20000 nM |  |  |  |  |  |  |  | 
11 | CCOC(=O)N1CCC2(CC(N3CCC(c4nccn4C)CC3)C2)C1 (single isomer, unassigned) [1-7 Isomer 2, ethyl 2-[4-(1-methyl-1H-imidazol-2-yl)piperidin-1-yl]-6-azaspiro[3.4]octane-6-carboxylate] | 25.1 nM | 97% | 158 nM | 97% | > 20000 nM | 15% | 22% | > 20000 nM |  |  |  |  |  |  |  | 
12 | O=C(OCCF)N1CCC2(CC(N3CCC(c4ccc[nH]c4=O)CC3)C2)C1 (single isomer, unassigned) [3-3 Isomer 2, 2-fluoroethyl 2-[4-(2-oxo-1,2-dihydropyridin-3-yl)piperidin-1-yl]-6-azaspiro[3.4]octane-6-carboxylate] | 6.31 nM | 106% | 25.1 nM | 81% | 10000 nM | 50% | 56% | > 20000 nM |  |  |  |  |  |  |  | 
13 | CCOC(=O)N1CCC2(CC(N3CCC([C@@H]4CCCN4C(=O)OCCOC)CC3)C2)C1 (single isomer, unassigned) [2-50 Isomer 2] | 25.1 nM | 73% | 251 nM | 63% | > 20000 nM | 4% | 2% | > 20000 nM |  |  |  |  |  |  |  | 
14 | COC(=O)N1CCC2(CC(N3CCC(n4ccc(C)n4)CC3)C2)C1 (single isomer, unassigned) [1-45 Isomer 2, methyl 2-[4-(3-methyl-1H-pyrazol-1-yl)piperidin-1-yl]-6-azaspiro[3.4]octane-6-carboxylate] | 20 nM | 80% | 316 nM | 80% | 1580 nM | 56% | 26% | > 20000 nM |  |  |  |  |  |  |  | 
15 | CCOC(=O)N1CCC2(CC(N3CCC(c4nn(C)cc4C)CC3)C2)C1 (single isomer, unassigned) [1-56 Isomer 2, ethyl 2-[4-(1,4-dimethyl-1H-pyrazol-3-yl)piperidin-1-yl]-6-azaspiro[3.4]octane-6-carboxylate] | 126 nM | 89% | 1000 nM | 30% | > 20000 nM | 0% | 3% | > 20000 nM |  |  |  |  |  |  |  | 
16 | CCOC(=O)N1CCC2(CC(N3CCC(C#N)(c4ccccn4)CC3)C2)C1 (single isomer, unassigned; isomer 2) [3-10 Isomer 2] |  |  |  |  |  |  |  |  | 8.9 | 103% | 8.0 | 90% | 7.0 | 96% | < 4.7 | 0%
